Source: patent publication US10155751B2, “Pyrazolyl-substituted heteroaryls and their use as medicaments” (Boehringer Ingelheim International GmbH, priority 2015, dated 2018)
Where two headings read alike, the source gives them in different places.

Columns and labels:
[1] = system: SYK dependent basophil degranulation (CD63 surface expression on basophils in whole blood); test: CD63-assay (cellular assay for SYK-inhibition) in whole blood; type: cell-based
Method: In this assay, IgE raised against dinitrophenol (DNP) is incubated in whole blood where it binds to the FcεR1 on basophils. […] CD63 normally resides on the intracellular granule membrane within basophils, which upon degranulation, is then expressed on the surface where it can be detected by flow cytometry. Surface expression of CD63 correlates extremely well with the release of histamine from basophils. The CD63 assay has previously been validated as a clinical target engagement biomarker in the Fostamatinib SYK program (Braselmann et al, J. Pharm. Exp. Therap. 319:998-1008, 2006). Heparinized whole blood is mixed gently (vortex mixer) and […] per test aliquoted into a 96 well plate. Anti-DNP (1 mg/ml) is diluted 1:100 with PBS/0.1% HSA to 10 μg/ml (final concentration: 1 μg/mL). Pre-dilute DNP/BSA (5 mg/ml) to a concentration of 60 ng/ml with washing solution. Compounds: […] Reagents are provided from the Basotest® kit. Incubate 10 μl of 10 μg/ml anti DNP and 10 μl of compound with 100 μl whole blood in a 37° C. pre-warmed water bath. After 30 minutes, 20 μl of STIMULATION BUFFER is added to the whole blood samples and vortexed gently. Incubate the samples for 10 min at 37° C. in a water bath. 100 μl of DNP/BSA is added per test to the whole blood. Add 100 μl of the WASHING SOLUTION to a further test tube as a negative control. Add 100 μl of DNP/BSA (final 30 ng/ml) in the compound tubes. All tubes are mixed once more. The samples are incubated for 20 min at 37° C. in a water bath. Stop degranulation by incubating the samples on ice for 5 min. Add 20 μl of STAINING REAGENT to each tube. Vortex and incubate the tubes for 20 min in an ice bath, covered to prevent exposure to light. The whole blood samples are lysed and fixed with 2 ml of pre-warmed (room temperature) 1×LYSING SOLUTION. Vortex and incubate for 10 min at room temperature. Spin down cells (5 min, 250×g, 4° C.). Discard the supernatant. Add 3 ml of WASHING SOLUTION to the tubes. Centrifuge the tubes (5 min, 250×g, 4° C.). Aspirate the supernatant. Add 200 μl WASHING SOLUTION to the cell pellet, vortex. Incubate the tubes in a covered ice bath until analysis. Cells are analysed by flow cytometry using the blue-green excitation light (488 nm argon-ion laser). Acquire data by using fluorescence triggering in the FL2 channel (PE) to gate on basophilic granulocytes expressing high amounts of IgE. This live gating reduces the amount of data and saves memory capacity. Acquire at least 500 basophils per sample. For data evaluation and calculation, the measurement of the negative control (unstimulated blood) was set as 100% control and the measurement of the positive control (DNP/anti-DNP stimulated blood) was set as 0% control. Based on these values the % value for the measurement of each substance concentration was calculated, a concentration-effect curve fitted and an EC50 value calculated using GraphPad Prism version 6.01 for Windows. The EC50 value was calculated using a nonlinear fitting (log(inhibitor) vs. response—variable slope). Normally, the % control values calculated are between 0% and 100% values but may also occur outside these limits in individual cases based on variability or compound characteristics.

[2] = system: human hepatocytes; test: Human hepatocyte stability test; type: in vitro ADME; conditions: human hepatocyte suspension, percent of hepatic blood flow
Method: A more comprehensive way to measure the metabolic stability of a compound of the instant invention than microsomal stability (section 5.6) is the human hepatocyte stability test as described below. Herein the metabolic degradation for the compound in question is performed in a human hepatocyte suspension.
Human hepatocytes (typically cryopreserved) are incubated in an appropriate buffer system (e.g. Dulbecco's modified eagle medium plus 3.5 μg glucagon/500 mL, 2.5 mg insulin/500 mL and 3.75 mg/500 mL hydrocortison) containing 5% species serum.
Following a (typically) 30 min preincubation in an incubator (37° C., 10% CO2) 5 μl of the solution of the compound to be tested ([…]; from 2 mM in DMSO stock solution diluted 1:25 with medium) are added into 395 μl hepatocyte suspension (cell density is in the range of 0.25-5 Mio cells/mL, typically 1 Mio cells/mL; the final concentration of the compound in question is […], the final DMSO concentration is 0.05%).
The cells are incubated for six hours (incubator, orbital shaker) and samples (25 μl) are taken at 0, 0.5, 1, 2, 4 and 6 hours. Samples are transferred into acetonitrile and pelleted by centrifugation (5 min). The supernatant is transferred to a new 96-deepwell plate, evaporated under nitrogen and resuspended.
The decline of the compound to be tested is analyzed by HPLC-MS/MS.
CLint is calculated as follows CL_INTRINSIC=Dose/AUC=(C0/CD)/(AUD+clast/k)×1000/60.
C0: initial concentration in the incubation [μM], CD: cell density of vital cells [10^6 cells/mL], AUD: area under the data [μM×h], clast: concentration of last data point [μM], k: slope of the regression line for the compound in question decline [h−1].
The calculated in vitro hepatic intrinsic clearance can be scaled up to the intrinsic in vivo hepatic Clearance and used to predict hepatic in vivo blood clearance (CL) by the use of a liver model (well stirred model). CL_INTRINSIC_INVIVO [ml/min/kg]=(CL_INTRINSIC [μL/min/10^6cells]×hepatocellularity[10^6 cells/g liver]×liver factor [g/kg bodyweight])/1000 CL [ml/min/kg]=CL_INTRINSIC_INVIVO [ml/min/kg]×hepatic blood flow [ml/min/kg]/(CL_INTRINSIC_INVIVO [ml/min/kg]+hepatic blood flow [ml/min/kg]) Qh[%]=CL [ml/min/kg]/hepatic blood flow [ml/min/kg]) […]
Hepatocellularity, human: 120×10^6 cells/g liver
Liver factor, human: 25.7 g/kg bodyweight
Blood flow, human: 21 ml/(min×kg)
A satisfying human hepatocyte stability for a compound in question measured by this assay is represented by a Qh<20% (whereby the stability is better, the lower the Qh-value is).

[3] = whole blood, DNP/anti-DNP stimulated basophils, read-out: CD63 assay EC50-value (chapter 5.2)

Compound	EC50 [1, 3] [nM]	stability in human hepatocytes (chapter 5.7) HEPhu [2] [% Qh]	EC50 ([1]; read-out: EC50 in CD63-assay) [nM]
Cc1c2c(O[C@H](C)[C@H]3CNC(=O)C3)cc(-c3cnn(C(C)C)c3)cc2nn1C [Example 18, (R)-4-{(R)-1-[6-(1-Isopropyl-1H-pyrazol-4-yl)-2,3-dimethyl-2H-indazol-4-yloxy]-ethyl}-pyrrolidin-2-one]	95	<4	–
Cc1c2c(O[C@H](C)[C@H]3CNC(=O)C3)cc(-c3cnn(CC(C)C)c3)cc2nn1C [Example 19, (R)-4-{(R)-1-[6-(1-Isobutyl-1H-pyrazol-4-yl)-2,3-dimethyl-2H-indazol-4-yloxy]-ethyl}-pyrrolidin-2-one]	107	7	–
Cc1c2c(O[C@H](C)[C@H]3CNC(=O)C3)cc(-c3cnn(C4CC4)c3)cc2nn1C [Example 20, (R)-4-{(R)-1-[6-(1-Cyclopropyl-1H-pyrazol-4-yl)-2,3-dimethyl-2H-indazol-4-yloxy]-ethyl}-pyrrolidin-2-one]	134	<4	–
Cc1c2c(O[C@H](C)[C@H]3CNC(=O)C3)cc(-c3cnn(C4CCC4)c3)cc2nn1C [Example 21, (R)-4-{(R)-1-[6-(1-Cyclobutyl-1H-pyrazol-4-yl)-2,3-dimethyl-2H-indazol-4-yloxy]-ethyl}-pyrrolidin-2-one]	76	7	–
Cc1c2c(O[C@H](C)[C@H]3CNC(=O)C3)cc(-c3cnn(C4CCC(F)(F)C4)c3)cc2nn1C (stereo partly drawn) [Example 22, (R)-4-((R)-1-{6-[1-(3,3-Difluoro-cyclopentyl)-1H-pyrazol-4-yl]-2,3-dimethyl-2H-indazol-4-yloxy}-ethyl)-pyrrolidin-2-one]	67	3	–
C[C@@H](Oc1nc(-c2cnn(C(C)(C)C)c2)cc2ncn(C)c12)[C@H]1CNC(=O)C1 [example 3A.02, on page 196 of WO15017610, reference compound]	42	7	< 150
C[C@@H](Oc1cc(-c2cnn(C(C)(C)C)c2)cc2ncn(C)c12)[C@H]1CNC(=O)C1 [example 3B.22 on page 219 of WO15017610, reference compound]	29	5	< 150
Cc1cnn2cc(-c3cnn(C(C)(C)C)c3)nc(O[C@H](C)[C@H]3CNC(=O)C3)c12 [example 5.20 on page 506 of WO15017610, reference compound]	77	31	< 150
Cc1cnn2cc(-c3cnn(C(C)(C)C)c3)cc(O[C@H](C)[C@H]3CNC(=O)C3)c12 [example 6.09 on page 559 of WO15017610, reference compound]	20	17	< 150
Cc1cc2c(O[C@H](C)[C@H]3CNC(=O)C3)cc(-c3cnn(C(C)(C)C)c3)cn2n1 [example 6.60 on page 587 of WO15017610, reference compound]	483	<4	483
